For one assay, the system named is HIV-IIIb. Put plainly: Antiviral assay in MT-4 cells infected with HIV-IIIb. The class given is cell-based. To be noted: MT4, 120 h, read-out: EC50 Range MT-4. An outline of the steps: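 MT-4 cells mixed with HIV-IIIb at m.o.i. 0.1 and added at once to 5-fold serial compound dilutions (7 concentrations, triplicate) in medium with 10% FBS. After 5 days at 37° C, cell viability read by CellTiter-Glo chemiluminescence.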

The target of another assay is HIV integrase (Human immunodeficiency virus type 1 group M subtype B, UniProt P04585). Put plainly: biochemical.

Our source for the EC50 and IC50 values is US20070072831A1, “Integrase inhibitor compounds” (GILEAD SCIENCES, INC., priority 2005, published 2007).

Read-outs that look alike come from different tables or passages of the source.

The term EC50 denotes the concentration at which the effect is half-maximal. By IC50 is commonly meant the concentration at which inhibition is half-maximal. The low end stands for inhibition by little substance, the high end for a need for much substance.

Description for HIV integrase: Representative compounds of the invention were tested for biological activity by methods including anti-HIV assay, measuring inhibition of HIV-integrase strand transfer catalysis, and cytotoxicity.
HIV Integrase Assay (IC50 Determination)
The HIV Integrase assay is carried out in Reacti-Bind High Binding Capacity Streptavidin coated plates (Pierce # 15502) in 100 μl reactions. The wells of the plate are rinsed once with PBS. Each well is then coated at room temperature for 1 h with 100 μl of 0.14 μM Donor DNA with the following sequence:
After coating, the plate was washed twice with PBS. 3′processing of the Donor DNA is started by adding 80 μl of Integrase/buffer mixture (25 mM HEPES, pH 7.3, 12.5 mM DTT, 93.75 mM NaCl, 12.5 mM MgCl2, 1.25% Glycerol, 0.3125 uM integrase) to each well. 3′processing is allowed to proceed for 30 min at 37° C., after which, 10 μl of test compound and 10 μl of 2.5 uM DIG-labeled Target DNA with the following sequence:
are added to each well to allow strand transfer to proceed for 30 min at 37° C. The plate is then washed three times with 2×SSC for 5 min and rinsed once with PBS. For detection of integrated product, 100 μl of a 1/2000 dilution of HRP-conjugated anti-DIG antibody (Pierce #31468) are added to each well and incubated for 1 hour. The plate was then washed three times for 5 min each, with 0.05% Tween-20 in PBS. For signal development and amplification, 100 μl of SuperSignal ELISA Femto Substrate (Pierce #37075) are added to each well. Chemiluminescence (in relative light units) is read immediately at 425 nm in the SPECTRAmax GEMINI Microplate Spectrophotometer using the end point mode at 5 sec per well.
For IC50 determinations, eight concentrations of test compounds in a 1/2.2 dilution series are used.

`CN(c1c2c(c(O)c3ncccc13)C(=O)N(Cc1c(F)cccc1F)C2)S(C)(=O)=O` [Compound 195, N-(7-(2,6-difluorobenzyl)-9-hydroxy-8-oxo-7,8-dihydro-6H-pyrrolo[3,4-g]quinolin-5-yl)-N-methylmethanesulfonamide]: the EC50 in the assay with HIV-IIIb (MT-4 cells, HIV-IIIb, 5 days) lay in the range of 60 to 1000 nM. For the same compound, the IC50 on HIV integrase lay in the range of 60 to 1000 nM.
`CN(c1c2c(c(O)c3ncccc13)C(=O)N(Cc1ccc(Cl)c(Cl)c1)C2)S(C)(=O)=O` [Compound 197, N-(7-(3,4-dichlorobenzyl)-9-hydroxy-8-oxo-7,8-dihydro-6H-pyrrolo[3,4-g]quinolin-5-yl)-N-methylmethanesulfonamide]: in the assay with HIV-IIIb (MT-4 cells, HIV-IIIb, 5 days), the EC50 is under 60 nM. Also, the IC50 against HIV integrase is 60 to 1000 nM.
In the same order, the values of `CN(c1c2c(c(O)c3ncccc13)C(=O)N(Cc1ccc(F)c(Cl)c1F)C2)S(C)(=O)=O` [Compound 199, N-(7-(3-chloro-2,4-difluorobenzyl)-9-hydroxy-8-oxo-7,8-dihydro-6H-pyrrolo[3,4-g]quinolin-5-yl)-N-methylmethanesulfonamide] are under 60 nM and 60 to 1000 nM.
Consider `CN(c1c2c(c(O)c3ncccc13)C(=O)N(Cc1cc(Cl)c(F)cc1F)C2)S(C)(=O)=O` [Compound 204, N-(7-(5-chloro-2,4-difluorobenzyl)-9-hydroxy-8-oxo-7,8-dihydro-6H-pyrrolo[3,4-g]quinolin-5-yl)-N-methylmethanesulfonamide], for which, in the assay on HIV-IIIb (MT-4 cells, HIV-IIIb, 5 days), the EC50 was under 60 nM. For the same compound, the IC50 on HIV integrase was under 60 nM.
With `COc1cc(F)ccc1CN1Cc2c(c(O)c3ncccc3c2N(C)S(C)(=O)=O)C1=O` [Compound 210, N-(7-(4-fluoro-2-methoxybenzyl)-9-hydroxy-8-oxo-7,8-dihydro-6H-pyrrolo[3,4-g]quinolin-5-yl)-N-methylmethanesulfonamide], the EC50 in the assay with HIV-IIIb (MT-4 cells, HIV-IIIb, 5 days) was under 60 nM. On HIV integrase, this compound yielded an IC50 of 60 to 1000 nM.
In the case of `CN(c1c2c(c(O)c3ncccc13)C(=O)N(Cc1cc(Cl)ccc1F)C2)S(C)(=O)=O` [Compound 211, N-(7-(5-chloro-2-fluorobenzyl)-9-hydroxy-8-oxo-7,8-dihydro-6H-pyrrolo[3,4-g]quinolin-5-yl)-N-methylmethanesulfonamide], in the assay on HIV-IIIb (MT-4 cells, HIV-IIIb, 5 days), the EC50 was under 60 nM. For the same compound, at HIV integrase, the IC50 lay in the range of 60 to 1000 nM.
In the same order, the values of `O=C1c2c(c(N3CCNS3(=O)=O)c3cccnc3c2O)CN1Cc1ccc(F)cc1` [Compound 214] are under 60 nM and under 60 nM.
In the same order, the values of `O=C1c2c(c(N3CCCNS3(=O)=O)c3cccnc3c2O)CN1Cc1ccc(F)cc1` [Compound 215] are under 60 nM and 60 to 1000 nM.
In the same order, the values of `CN1CCCN(c2c3c(c(O)c4ncccc24)C(=O)N(Cc2ccc(F)cc2)C3)S1(=O)=O` [Compound 218] are under 60 nM and under 60 nM.
Regarding `O=C1c2c(c(N3CCNC3=O)c3cccnc3c2O)CN1Cc1ccc(F)cc1` [Compound 221, 7-(4-fluorobenzyl)-9-hydroxy-5-(2-oxoimidazolidin-1-yl)-6,7-dihydropyrrolo[3,4-g]quinolin-8-one], in the assay with HIV-IIIb (MT-4 cells, HIV-IIIb, 5 days), the concentration giving a half-maximal response (EC50) is under 60 nM. The compound further showed a 50% inhibitory concentration (IC50) against HIV integrase of under 60 nM.
For the compound `O=C1c2c(c(N3CCCNC3=O)c3cccnc3c2O)CN1Cc1ccc(F)cc1` [Compound 222, 7-(4-fluorobenzyl)-9-hydroxy-5-(2-oxo-tetrahydropyrimidin-1(2H)-yl)-6,7-dihydropyrrolo[3,4-g]quinolin-8-one], in the assay on HIV-IIIb (MT-4 cells, HIV-IIIb, 5 days), the EC50 is under 60 nM. Also, at HIV integrase, the IC50 fell in the range of 60 to 1000 nM.
With `CN1CCCN(c2c3c(c(O)c4ncccc24)C(=O)N(Cc2ccc(F)cc2)C3)C1=O` [Compound 224, 7-(4-fluorobenzyl)-9-hydroxy-5-(3-methyl-2-oxo-tetrahydropyrimidin-1(2H)-yl)-6,7-dihydropyrrolo[3,4-g]quinolin-8-one], the EC50 in the assay with HIV-IIIb is 60 to 1000 nM. Also, the half-inhibitory concentration (IC50) on HIV integrase is under 60 nM.
In the case of `O=C1c2c(c(N3C(=O)CCC3=O)c3cccnc3c2O)CN1Cc1ccc(F)cc1` [Compound 226, 1-(7-(4-fluorobenzyl)-9-hydroxy-8-oxo-7,8-dihydro-6H-pyrrolo[3,4-g]quinolin-5-yl)pyrrolidine-2,5-dione], in the assay on HIV-IIIb (MT-4 cells, HIV-IIIb, 5 days), the concentration giving a half-maximal response (EC50) was under 60 nM. The compound also came in with an IC50 against HIV integrase of under 60 nM.
